This note sets out measurements from patent US10828315B2 (Madrigal Pharmaceuticals, Inc., priority 2013, dated 2020).

Data set [1] in a line: Artificial membrane permeability assay (PAMPA).
The conditions of data set [2]: female, SCID, mouse, in vivo.
The conditions of data set [3]: mouse, plasma, 1 h, 10 µM.
Data set [4] in a line: Retention of docetaxel SDC-TRAPs in plasma and tumor (Example 53). It counts as in vivo, Female SCID Mouse (H1975). To be noted: DRD.
Description: Blood samples (˜300 μL) were collected by cardiac puncture and immediately centrifuged at 6000 rpm for 8 minutes at approximately 4° C. Resulting plasma samples (˜150 μL) were stored at −80° C. until analysis.
Following sacrifice, tumors were immediately dissected on ice, flash frozen in liquid N2, and stored at −80° C. until analysis.
To 55 μL of plasma samples, 200 μL of methanol containing 150-250 ng/mL internal standard(s) was added. Samples were vortex mixed for approximately 1.5 minutes at ambient temperature and then centrifuged at 4400 rpm for 10 mm at approximately 4° C. The resulting supernatants (175 μL) were transferred to a 96-well plate and dried under nitrogen at 40° C. Dried samples were reconstituted with 100 μL 50/50 (v/v) water/methanol, vortex mixed and 10 μL were injected into LC-MS/MS.
Tumor samples were weighed and homogenized in 5 volume of ice-cold phosphate buffered saline on ice using a hand-held homogenizer. To 55 μL of tumor homogenate samples, 200 μL of methanol containing 150-250 ng/mL internal standard(s) was added. Samples were vortex mixed for approximately 1.5 minutes at ambient temperature and then centrifuged at 4400 rpm for 10 min at approximately 4° C. The resulting supernatants (175 μL) were transferred to a 96-well plate and dried under nitrogen at 40° C. Dried samples were reconstituted with 100 μL 50/50 (v/v) water/methanol, vortex mixed and 10 μL were injected into LC-MS/MS.
Plasma and tumor samples were analyzed by LC-MS/MS using an Agilent 1100 HPLC (Agilent Technologies, Santa Clara, Calif.) interfaced to an API 4000 tandem mass spectrometer (Applied Biosystems, Foster City, Calif.). […] The flow rate was 0.5 mL/min. […] Quantitation for each analyte was done by extrapolation from a standard curve ranging from 2.50 to 50000 nM with 1/x^2 weighting.
Blood samples (˜300 μL) were collected by cardiac puncture and immediately centrifuged at 6000 rpm for 8 minutes at approximately 4° C. Resulting plasma samples (˜150 μL) were transferred to Eppendorf tubes containing approximately 5-10 mg of NaF, vortex mixed, and stored at −80° C. until analysis.
Following sacrifice tumors were immediately dissected on ice, flash frozen in liquid N2, and stored at −80° C. until analysis.
To 60 μL of plasma samples, 25 μL of 75/25 (v/v) water/acetonitrile containing 100 ng/mL internal standard(s) and 200 μL of acetonitrile were added. Samples were vortex mixed for approximately 2 minutes at ambient temperature and then centrifuged at 4400 rpm for 10 min at approximately 4° C. The resulting supernatants (300 μL) were transferred to a 96-well plate and dried under nitrogen at 40° C. Dried samples were reconstituted with 500 μL 60/40 (v/v) water/acetonitrile, vortex mixed and 10 μL were injected into LC-MS/MS.
Tumor samples were weighed and homogenized in 3 volume of ice-cold phosphate buffered saline on ice using a hand-held homogenizer. To 60 μL of tumor homogenate samples, 25 μL of 75/25 (v/v) water/acetonitrile containing 100 ng/mL internal standard(s) and 200 μL of acetonitrile were added. […] The resulting supernatants (200 μL) were transferred to a 96-well plate and dried under nitrogen at 40° C. Dried samples were reconstituted with 600 μL 60/40 (v/v) water/acetonitrile, vortex mixed and 10 μL were injected into LC-MS/MS.
Plasma and tumor samples were analyzed by LC-MS/MS using an Agilent 1100 HPLC (Agilent Technologies, Santa Clara, Calif.) interfaced to an API 4000 tandem mass spectrometer (Applied Biosystems, Foster City, Calif.). The separation of analytes were performed on a Symmetry Shield Sum C18 (2.1×100 mm; 100 Å) column (Waters, Milford, Mass.) with a run time of 5.0 mm per sample using the mobile phase consisted of 0.1% formic acid (A) and acetonitrile containing 0.1% formic acid (B). […] Quantitation for each analyte was done by extrapolation from a standard curve ranging from 1.00 to 25000 ng/mL with 1/x^2 weighting.
Where [5] appears, read: of analyte at 48 h, dosed SDC-TRAP-0423 7 mg/10 mL/kg IV, Table 5, second optimized procedure.
Setting [6] is: of analyte at 72 h, dosed SDC-TRAP-0423 7 mg/10 mL/kg IV, Table 5, second optimized procedure.
Where [7] appears, read: of analyte at 48 h, dosed SDC-TRAP-0426 25 mg/10 mL/kg IV, Table 4.
The mark [8] stands for this setting: of analyte at 24 h, dosed SDC-TRAP-0427 25 mg/10 mL/kg IV, Table 4.
[9] abbreviates: of analyte at 48 h, dosed SDC-TRAP-0427 25 mg/10 mL/kg IV, Table 4.
[10] abbreviates: of analyte at 72 h, dosed SDC-TRAP-0427 25 mg/10 mL/kg IV, Table 4.
Setting [11] is: of analyte at 48 h, dosed SDC-TRAP-0428 25 mg/10 mL/kg IV, Table 4.

Where two headings read alike, the source gives them in different places.

With `CC(C)c1cc(-c2nnc(O)n2-c2ccc3c(ccn3CCNC(=O)CCCC[C@@H]3SCC4NC(=O)NC43)c2)c(O)cc1O` (stereo in doubt) [SDC-TRAP-0233, N-(2-(5-(3-(2,4-dihydroxy-5-isopropylphenyl)-5-hydroxy-4H-1,2,4-triazol-4-yl)-1H-indol-1-yl)ethyl)-5-((3aS,4S,6aR)-2-oxohexahydro-1H-thieno[3,4-d]imidazol-4-yl)pentanamide], in data set [1] (incubation 5 h, first table), the “Mass Retention” value was determined as 10.9%.
Consider `CC(C)c1cc(-c2nnc(O)n2-c2ccc3c(ccn3CCNC(=O)CCCCCNC(=O)CCCC[C@H]3SCC4NC(=O)NC43)c2)c(O)cc1O` (stereo in doubt) [SDC-TRAP-0234, N-(2-(5-(3-(2,4-dihydroxy-5-isopropylphenyl)-5-hydroxy-4H-1,2,4-triazol-4-yl)-1H-indol-1-yl)ethyl)-6-(5-((3aR,4R,6aS)-2-oxohexahydro-1H-thieno[3,4-d]imidazol-4-yl)pentanamido)hexanamide], for which the “Mass Retention” value in data set [1] (incubation 5 h, first table) is reported as 9.56%.
For the molecule `Cn1c(=O)c2c(ncn2C)n(C)c1=O` [Caffeine], the “Mass Retention” value in data set [1] (incubation 5 h, first table) was 20.8%; in data set [1] (same protocol, second table), −0.11%.
For the molecule `CC(=O)O[C@@]12CO[C@@H]1C[C@H](O)[C@@]1(C)C(=O)[C@H](O)C3=C(C)[C@@H](OC(=O)[C@H](O)[C@@H](NC(=O)OC(C)(C)C)c4ccccc4)C[C@@](O)([C@@H](OC(=O)c4ccccc4)[C@H]21)C3(C)C` [Docetaxel, docetaxel, reference compound], the “Mass Retention” value in data set [1] (incubation 5 h, first table) came to 17.6%.
With `CC(C)c1cc(-c2nnc(O)n2-c2ccc(CC3CCN(CC(=O)Nc4cccc5c4CN(C4CCC(=O)NC4=O)C5=O)CC3)cc2)c(O)cc1O` (stereo not drawn) [SDC-TRAP-0116, 2-(4-(4-(3-(2,4-dihydroxy-5-isopropylphenyl)-5-hydroxy-4H-1,2,4-triazol-4-yl)benzyl)piperidin-1-yl)-N-(2-(2,6-dioxopiperidin-3-yl)-1-oxoisoindolin-4-yl) acetamide], the “Tumor Conc.” value in data set [2] (1 h) is 13.7 nmol/g of tissue; in data set [2] (6 h), 6.09 nmol/g of tissue; in data set [2] (24 h), 2.78 nmol/g of tissue; in data set [2] (48 h), 1.46 nmol/g of tissue; in data set [2] ([…]), 17.7 nmol/g of tissue. The “% Remaining (1 h)” value in data set [3] is given as 91.1%.
Turning to `CCc1c2c(nc3ccc(OS(=O)(=O)c4cccc(C(=O)N5CCN(Cc6ccc(-n7c(O)nnc7-c7cc(C(C)C)c(O)cc7O)cc6)CC5)c4)cc13)-c1cc3c(c(=O)n1C2)COC(=O)C3(O)CC` (stereo not drawn) [SDC-TRAP-0389, 4,11-diethyl-4-hydroxy-3,14-dioxo-3,4,12,14-tetrahydro-1H-pyrano[3′,4′:6,7]indolizino[1,2-b]quinolin-9-yl 3-(4-(4-(3-(2,4-dihydroxy-5-isopropylphenyl)-5-hydroxy-4H-1,2,4-triazol-4-yl)benzyl)piperazine-1-carbonyl)benzenesulfonate], the “% Remaining (1 h)” value in data set [3] was 77.7%.
With `CCc1c2c(nc3ccc(OS(=O)(=O)c4ccc(C(=O)N5CCC(CCn6ccc7cc(-n8c(O)nnc8-c8cc(C(C)C)c(O)cc8O)ccc76)CC5)cc4)cc13)-c1cc3c(c(=O)n1C2)COC(=O)C3(O)CC` (stereo not drawn) [SDC-TRAP-0390, 4,11-diethyl-4-hydroxy-3,14-dioxo-3,4,12,14-tetrahydro-1H-pyrano[3′,4′:6,7]indolizino[1,2-b]quinolin-9-yl 4-(4-(2-(5-(3-(2,4-dihydroxy-5-isopropylphenyl)-5-hydroxy-4H-1,2,4-triazol-4-yl)-1H-indol-1-yl)ethyl)piperidine-1-carbonyl)benzenesulfonate], in data set [3], the “% Remaining (1 h)” value was 92.5%.
Turning to `CCNC(=O)c1nnc(-c2cc(C(C)C)c(O)cc2O)n1-c1ccc2c(c1)CN(C(=O)c1ccc(S(=O)(=O)Oc3ccc4nc5c(c(CC)c4c3)Cn3c-5cc4c(c3=O)COC(=O)C4(O)CC)cc1)C2` (stereo not drawn) [SDC-TRAP-0393, 4,11-diethyl-4-hydroxy-3,14-dioxo-3,4,12,14-tetrahydro-1H-pyrano[3′,4′:6,7]indolizino[1,2-b]quinolin-9-yl 4-(5-(3-(2,4-dihydroxy-5-isopropylphenyl)-5-(ethylcarbamoyl)-4H-1,2,4-triazol-4-yl)isoindoline-2-carbonyl)benzenesulfonate], the “% Remaining (1 h)” value in data set [3] is recorded as 47.8%.
For the molecule `CCNC(=O)c1nnc(-c2cc(C(C)C)c(O)cc2O)n1-c1ccc(N(C)C2CCN(C(=O)CCC(=O)O[C@H](C(=O)O[C@@H]3C[C@]4(O)[C@H](OC(=O)c5ccccc5)[C@H]5C6(OC(C)=O)COC6C[C@@H](O)[C@]5(C)C(=O)[C@@H](O)C(=C3C)C4(C)C)[C@H](NC(=O)OC(C)(C)C)c3ccccc3)CC2)nc1` (stereo partly drawn) [SDC-TRAP-0423], the concentration at 6 h in data set [4] (female, SCID, mouse, in vivo, of analyte at 6 h, dosed SDC-TRAP-0423 7 mg/10 mL/kg IV, Table 5, second optimized procedure, read-out: Plasma Conc.) was found to be 2210 nM. Besides, the “Tumor Conc.” value in data set [4] (of analyte at 6 h, dosed SDC-TRAP-0423 7 mg/10 mL/kg IV, Table 5, second optimized procedure) is given as 0.730 nmol/g of tissue; in data set [4] (setting [5]), 0.0538 nmol/g of tissue; in data set [4] (setting [6]), 0.0186 nmol/g of tissue. In addition, the “Plasma Conc.” value in data set [4] (setting [5]) and in data set [4] (setting [6]) was “BQL” each time.
With `CC(=O)O[C@@]12CO[C@@H]1C[C@H](O)[C@@]1(C)C(=O)[C@H](O)C3=C(C)[C@@H](OC(=O)[C@H](OC(=O)CCC(=O)N4CCC(N5CCC(CCn6ccc7cc(-n8c(O)nnc8-c8cc(C(C)C)c(O)cc8O)ccc76)CC5)CC4)[C@@H](NC(=O)OC(C)(C)C)c4ccccc4)C[C@@](O)([C@@H](OC(=O)c4ccccc4)[C@H]21)C3(C)C` [SDC-TRAP-0426], in data set [4] (female, SCID, mouse, in vivo, of analyte at 6 h, dosed SDC-TRAP-0426 25 mg/10 mL/kg IV, Table 4, read-out: Plasma Conc.), the concentration at 6 h was found to be 31.1 nM. In addition, the concentration at 24 h in data set [4] (female, SCID, mouse, in vivo, of analyte at 24 h, dosed SDC-TRAP-0426 25 mg/10 mL/kg IV, Table 4, read-out: Plasma Conc.) came to 11.1 nM. For the same molecule, the “Tumor Conc.” value in data set [4] (of analyte at 6 h, dosed SDC-TRAP-0426 25 mg/10 mL/kg IV, Table 4) is listed as 0.375 nmol/g of tissue; in data set [4] (of analyte at 24 h, dosed SDC-TRAP-0426 25 mg/10 mL/kg IV, Table 4), 0.256 nmol/g of tissue; in data set [4] (setting [7]), 0.337 nmol/g of tissue. In data set [4] (setting [7]), the “Plasma Conc.” value is “BQL”.
As for `CC(=O)O[C@@]12CO[C@@H]1C[C@H](O)[C@@]1(C)C(=O)[C@H](O)C3=C(C)[C@@H](OC(=O)[C@H](OC(=O)CCC(=O)NC4CCN(C(=O)C5CCN(Cc6ccc(-n7c(O)nnc7-c7cc(C(C)C)c(O)cc7O)cc6)CC5)CC4)[C@@H](NC(=O)OC(C)(C)C)c4ccccc4)C[C@@](O)([C@@H](OC(=O)c4ccccc4)[C@H]21)C3(C)C` [SDC-TRAP-0427], the concentration at 6 h in data set [4] (female, SCID, mouse, in vivo, of analyte at 6 h, dosed SDC-TRAP-0427 7 mg/10 mL/kg IV, Table 5, second optimized procedure, read-out: Plasma Conc.) is 8390 nM; in data set [4] (female, SCID, mouse, in vivo, of analyte at 6 h, dosed SDC-TRAP-0427 25 mg/10 mL/kg IV, Table 4, read-out: Plasma Conc.) it was 20900 nM. Besides, the concentration at 48 h in data set [4] (female, SCID, mouse, in vivo, of analyte at 48 h, dosed SDC-TRAP-0427 7 mg/10 mL/kg IV, Table 5, second optimized procedure, read-out: Plasma Conc.) amounted to 11.8 nM. Also, in data set [4] (female, SCID, mouse, in vivo, of analyte at 72 h, dosed SDC-TRAP-0427 7 mg/10 mL/kg IV, Table 5, second optimized procedure, read-out: Plasma Conc.), the concentration at 72 h came out at 10.1 nM. Further, the “Tumor Conc.” value in data set [4] (of analyte at 6 h, dosed SDC-TRAP-0427 7 mg/10 mL/kg IV, Table 5, second optimized procedure) is 1.19 nmol/g of tissue; in data set [4] (of analyte at 6 h, dosed SDC-TRAP-0427 25 mg/10 mL/kg IV, Table 4), 13.6 nmol/g of tissue; in data set [4] (setting [8]), 14.6 nmol/g of tissue; in data set [4] (of analyte at 48 h, dosed SDC-TRAP-0427 7 mg/10 mL/kg IV, Table 5, second optimized procedure) it was 0.458 nmol/g of tissue; in data set [4] (setting [9]) it was 8.02 nmol/g of tissue; in data set [4] (of analyte at 72 h, dosed SDC-TRAP-0427 7 mg/10 mL/kg IV, Table 5, second optimized procedure), 0.372 nmol/g of tissue. Also, the “Tumor Conc.” value in data set [4] (setting [10]) is listed as 7.18 nmol/g of tissue. Further, the “Plasma Conc.” value in data set [4] (setting [8]), in data set [4] (setting [9]) and in data set [4] (setting [10]) was “BQL” each time.
`CC(=O)O[C@@]12CO[C@@H]1C[C@H](O)[C@@]1(C)C(=O)[C@H](O)C3=C(C)[C@@H](OC(=O)[C@H](OC(=O)C4CCN(C(=O)C5CCN(Cc6ccc(-n7c(O)nnc7-c7cc(C(C)C)c(O)cc7O)cc6)CC5)CC4)[C@@H](NC(=O)OC(C)(C)C)c4ccccc4)C[C@@](O)([C@@H](OC(=O)c4ccccc4)[C@H]21)C3(C)C` [SDC-TRAP-0428]: the “Tumor Conc.” value is 5.27 nmol/g of tissue in data set [4] (of analyte at 6 h, dosed SDC-TRAP-0428 25 mg/10 mL/kg IV, Table 4); 3.89 nmol/g of tissue in data set [4] (of analyte at 24 h, dosed SDC-TRAP-0428 25 mg/10 mL/kg IV, Table 4); 3.40 nmol/g of tissue in data set [4] (setting [11]); 1.20 nmol/g of tissue in data set [4] (of analyte at 72 h, dosed SDC-TRAP-0428 25 mg/10 mL/kg IV, Table 4). Besides, the “Plasma Conc.” value in data set [4] (setting [11]) is “BQL”.
